Assay results as given in ChEMBL document CHEMBL1781890, “Inhibition of Myosin ATPase activity by halogenated pseudilins: a structure-activity study” (J Med Chem, 2011).

Legend:
[1] = Inhibition of Dictyostelium discoideum myosin 2 motor domain-activated ATPase activity by spectrophotometry based PK/LDH coupled ATPase assay
Unconventional myosin-Va = Unconventional myosin-Va (Gallus gallus, UniProt Q02440); experiment: Inhibition of chicken myosin 5a assessed as ATP hydrolysis
[2] = Inhibition of Dictyostelium discoideum myosin 1b ATPase activity by spectrophotometric analysis

Unconventional myosin-Va, sequence (Q02440 whole entry): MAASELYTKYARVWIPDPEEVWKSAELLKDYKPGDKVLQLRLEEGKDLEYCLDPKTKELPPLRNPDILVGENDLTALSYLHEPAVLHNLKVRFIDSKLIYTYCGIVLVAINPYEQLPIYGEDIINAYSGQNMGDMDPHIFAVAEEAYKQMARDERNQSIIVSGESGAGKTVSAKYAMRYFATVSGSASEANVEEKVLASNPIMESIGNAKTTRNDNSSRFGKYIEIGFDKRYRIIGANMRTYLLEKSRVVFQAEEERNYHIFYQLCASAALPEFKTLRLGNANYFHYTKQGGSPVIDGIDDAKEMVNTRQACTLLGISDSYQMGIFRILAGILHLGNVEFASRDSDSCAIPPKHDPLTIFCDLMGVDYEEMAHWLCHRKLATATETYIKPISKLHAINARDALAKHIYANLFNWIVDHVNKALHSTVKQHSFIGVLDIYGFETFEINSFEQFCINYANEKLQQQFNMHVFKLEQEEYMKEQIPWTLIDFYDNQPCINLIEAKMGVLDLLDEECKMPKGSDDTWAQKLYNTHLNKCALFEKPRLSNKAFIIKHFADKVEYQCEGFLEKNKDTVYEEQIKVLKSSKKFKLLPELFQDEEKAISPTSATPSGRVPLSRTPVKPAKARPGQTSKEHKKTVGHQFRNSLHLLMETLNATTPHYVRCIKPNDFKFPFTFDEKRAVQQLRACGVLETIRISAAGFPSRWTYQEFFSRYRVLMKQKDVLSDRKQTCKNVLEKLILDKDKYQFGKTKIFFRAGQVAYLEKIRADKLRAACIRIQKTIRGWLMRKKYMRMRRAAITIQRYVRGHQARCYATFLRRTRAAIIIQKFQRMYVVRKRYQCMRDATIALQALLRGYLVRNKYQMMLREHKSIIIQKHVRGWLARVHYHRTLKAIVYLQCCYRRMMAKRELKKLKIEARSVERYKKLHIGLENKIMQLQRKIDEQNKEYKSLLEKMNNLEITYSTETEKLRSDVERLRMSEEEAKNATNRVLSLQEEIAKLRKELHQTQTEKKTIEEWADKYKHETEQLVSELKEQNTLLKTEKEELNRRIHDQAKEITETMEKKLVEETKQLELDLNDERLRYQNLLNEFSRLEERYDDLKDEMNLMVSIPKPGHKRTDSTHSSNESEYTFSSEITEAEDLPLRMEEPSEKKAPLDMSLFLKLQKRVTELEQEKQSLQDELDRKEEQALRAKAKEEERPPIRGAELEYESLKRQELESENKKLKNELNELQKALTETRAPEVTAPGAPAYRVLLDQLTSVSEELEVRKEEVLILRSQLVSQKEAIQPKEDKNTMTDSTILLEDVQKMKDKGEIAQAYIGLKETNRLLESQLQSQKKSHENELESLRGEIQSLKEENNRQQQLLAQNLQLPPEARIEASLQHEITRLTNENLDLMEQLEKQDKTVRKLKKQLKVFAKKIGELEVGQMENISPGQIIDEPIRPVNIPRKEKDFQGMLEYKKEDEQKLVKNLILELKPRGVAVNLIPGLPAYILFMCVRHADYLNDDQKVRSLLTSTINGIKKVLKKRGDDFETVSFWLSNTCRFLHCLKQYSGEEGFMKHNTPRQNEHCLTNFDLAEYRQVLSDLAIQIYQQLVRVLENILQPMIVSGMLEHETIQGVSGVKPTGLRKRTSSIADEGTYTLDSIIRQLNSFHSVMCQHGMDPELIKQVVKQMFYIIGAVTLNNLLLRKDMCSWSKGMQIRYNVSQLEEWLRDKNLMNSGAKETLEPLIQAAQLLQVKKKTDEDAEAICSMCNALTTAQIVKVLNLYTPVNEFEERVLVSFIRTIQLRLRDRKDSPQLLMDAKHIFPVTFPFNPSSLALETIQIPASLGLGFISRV

| SMILES | IC50 [1] | IC50 (Unconventional myosin-Va) | IC50 [2] |
| --- | --- | --- | --- |
| Oc1ccccc1-c1ccc[nH]1 | > 1000 µM | – | – |
| COc1ccccc1-c1ccc[nH]1 | > 1000 µM | – | – |
| COc1c(Br)cc(Br)cc1-c1[nH]c(Br)c(Br)c1Br | 91.9 µM | – | – |
| Cn1c(Br)c(Br)c(Br)c1-c1cc(Br)cc(Br)c1O | 125 µM | – | – |
| COc1ccccc1-c1[nH]c(Br)c(Br)c1Br | 182 µM | – | – |
| COc1c(Cl)cc(Cl)cc1-c1[nH]c(Cl)c(Cl)c1Cl | 274 µM | – | – |
| Oc1c(Br)cc(Br)cc1-c1[nH]c(Br)c(Br)c1Br [PENTABROMOPSEUDILIN] | 24.4 µM | 1.2 µM | – |
| Oc1c(Cl)cc(Cl)cc1-c1[nH]c(Cl)c(Cl)c1Cl [PENTACHLOROPSEUDILIN] | 126 µM | – | 1 µM |
